In patent US20250145595A1, “ANTAGONISTS OF THE MUSCARINIC ACETYLCHOLINE RECEPTOR M4” (Vanderbilt University, priority 2021, published 2025):

Columns and labels:
[1] = biological target: T1, Human M4 (Homo sapiens, UniProt P08173); experiment: mAChR M4 cell-based functional assay (calcium flux, antagonism of EC80 acetylcholine response, M4/Gqi5/CHO-K1 cells); conditions: % ACh maximum at 30 μM
T1 construct: expressed in transfected cells; host or cells: CHO-K1 (ATCC), stably co-transfected with Gqi5
T1 sequence (P08173 1-479): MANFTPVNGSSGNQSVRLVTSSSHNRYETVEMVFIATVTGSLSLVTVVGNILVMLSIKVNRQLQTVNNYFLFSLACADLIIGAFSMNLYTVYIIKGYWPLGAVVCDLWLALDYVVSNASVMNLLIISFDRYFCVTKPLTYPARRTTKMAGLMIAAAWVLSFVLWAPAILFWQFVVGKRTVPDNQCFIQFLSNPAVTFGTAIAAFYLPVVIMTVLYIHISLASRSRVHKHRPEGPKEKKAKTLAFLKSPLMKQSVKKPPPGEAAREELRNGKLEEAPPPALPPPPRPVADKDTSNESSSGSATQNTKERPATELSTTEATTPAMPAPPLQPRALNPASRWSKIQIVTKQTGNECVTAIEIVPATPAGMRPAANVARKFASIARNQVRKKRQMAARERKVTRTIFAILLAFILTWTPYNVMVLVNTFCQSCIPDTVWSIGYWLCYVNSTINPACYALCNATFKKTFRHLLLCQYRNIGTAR
Protocol: Human or rat M4 cDNA, along with the chimeric G protein Gqi5, were transfected into Chinese hamster ovary (CHO-K1) cells purchased from the American Type Culture Collection using Lipofectamine2000. M4/Gqi5/CHO cells were grown in Ham's F-12 medium containing 10% heat-inactivated fetal bovine serum (FBS), 20 mM HEPES, 500 μg/mL G418 sulfate, and 200 μg/mL Hygromycin B.
For high throughput measurement of agonist-evoked increases in intracellular calcium, CHO-K1 cells stably expressing muscarinic receptors were plated in growth medium lacking G^418 and hygromycin at 15,000 cells/20 μL/well in Greiner 384-well black-walled, tissue culture (TC)-treated, clear-bottom plates (VWR). Cells were incubated overnight at 37° C. and 5% CO2. The next day, cells were washed using an ELX 405 (BioTek) with assay buffer; the final volume was then aspirated to 20 μL. Next, 20 μL of a […] of Fluo-4/acetoxymethyl ester (Invitrogen, Carlsbad, CA), prepared as a 2.3 mM stock in DMSO and mixed in a 1:1 ratio with 10% (w/v) Pluronic F-127 and diluted in assay buffer, was added to the wells and the cell plates were incubated for 50 min at 37° C. and 5% CO2. Dye was removed by washing with the ELX 405 and the final volume was aspirated to 20 μL. Compound master plates were formatted in a 10-point concentration-response curve (CRC) format (1:3 dilutions) in 100% DMSO with a starting concentration of 10 or 1 mM using a BRAVO liquid handler (Agilent). Test compound CRCs were then transferred to daughter plates (240 nL) using the Echo acoustic plate reformatter (Labcyte, Sunnyvale, CA) and then diluted into assay buffer (40 μL) to a 2× stock using a Thermo Fisher Combi (Thermo Fisher Scientific, Waltham, MA).
Calcium flux was measured using the Functional Drug Screening System (FDSS) 6000 or 7000 (Hamamatsu Corporation, Tokyo, Japan) as an increase in the fluorescent static ratio. Compounds were applied to cells (20 μL, 2×) using the automated system of the FDSS at 2 seconds into the protocol and the data were collected at 1 Hz. At 143 s, 10 μL of an EC20 concentration of the muscarinic receptor agonist acetylcholine was added (5×), followed by the addition of 12 μL of an EC80 concentration of acetylcholine at the 268 s time point (5×). Agonist activity was analyzed as a concentration-dependent increase in calcium mobilization upon compound addition. Positive allosteric modulator activity was analyzed as a concentration-dependent increase in the EC20 acetylcholine response. Antagonist activity was analyzed as a concentration-dependent decrease in the EC80 acetylcholine response; for the purposes of the tables herein, an IC50 (inhibitory concentration 50) was calculated as a concentration-dependent decrease of the response elicited by an EC80 concentration of acetylcholine. Concentration-response curves were generated using a four-parameter logistical equation in XLFit curve fitting software (IDBS, Bridgewater, NJ) for Excel (Microsoft, Redmond, WA) or Prism (GraphPad Software, Inc., San Diego, CA) or the Dotmatics software platform (Dotmatics, Bishop's Stortford, UK).
Compounds were synthesized as described above. Activity (IC50 and Emin) was determined in the mAChR M4 cell-based functional assay as described above and the data are shown in Table 2.

[2] = biological target: T2, Human M1 (Homo sapiens, UniProt P11229); experiment: mAChR M1 cell-based functional assay (calcium flux, antagonism of EC80 acetylcholine response, hM1 CHO-K1 cells); conditions: compound 61 versus compound 62, data of Table 3
T2 sequence (P11229 1-460): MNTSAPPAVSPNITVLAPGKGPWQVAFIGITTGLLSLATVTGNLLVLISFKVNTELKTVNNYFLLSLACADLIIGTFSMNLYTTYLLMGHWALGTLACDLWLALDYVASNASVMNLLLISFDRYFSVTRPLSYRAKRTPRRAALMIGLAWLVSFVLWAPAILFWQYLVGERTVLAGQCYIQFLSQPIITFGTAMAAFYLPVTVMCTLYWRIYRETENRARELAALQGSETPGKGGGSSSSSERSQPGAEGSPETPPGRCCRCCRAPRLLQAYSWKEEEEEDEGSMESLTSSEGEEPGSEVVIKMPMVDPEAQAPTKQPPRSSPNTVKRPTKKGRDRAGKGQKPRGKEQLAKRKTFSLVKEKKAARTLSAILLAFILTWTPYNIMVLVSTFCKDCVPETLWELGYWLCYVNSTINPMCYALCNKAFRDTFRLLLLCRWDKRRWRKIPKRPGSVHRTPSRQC
Protocol: hM1 cDNA was purchased from Missouri S&T cDNA Resource and used to stably transfect CHO-K1 cells purchased from the American Type Culture Collection using Lipofectamine2000. hM1 cells were grown in Ham's F-12 medium containing 10% heat-inactivated fetal bovine serum (FBS), 20 mM HEPES, and 50 μg/mL G418 sulfate.
For high throughput measurement of agonist-evoked increases in intracellular calcium, CHO-K1 cells stably expressing muscarinic receptors were plated in growth medium lacking G418 and hygromycin at 15,000 cells/20 μL/well in Greiner 384-well black-walled, tissue culture (TC)-treated, clear-bottom plates (VWR). Cells were incubated overnight at 37° C. and 5% CO2. […]
Calcium flux was measured using the Functional Drug Screening System (FDSS) 6000 (Hamamatsu Corporation, Tokyo, Japan) as an increase in the fluorescent static ratio. […] Agonist activity was analyzed as a concentration-dependent increase in calcium mobilization upon compound addition. […] Positive allosteric modulator activity was analyzed as a concentration-dependent increase in the EC20 acetylcholine response. Antagonist activity was analyzed as a concentration-dependent decrease in the EC80 acetylcholine response; for the purposes of the tables herein, an IC50 (inhibitory concentration 50) was calculated as a concentration-dependent decrease of the response elicited by an EC80 concentration of acetylcholine. […]

[3] = system: catalepsy induced by the DA receptor antagonist haloperidol; conditions: cited from earlier work

[2H]C1([2H])CC(C([2H])([2H])N2C[C@H]3C[C@H](Nc4nnc(-c5cnccc5C(F)(F)F)cc4OC)C[C@H]3C2)CC([2H])([2H])O1 [Compound 22, (3aR,5s,6aS)-N-(4-methoxy-6-(4-(trifluoromethyl)pyridin-3-yl)pyridazin-3-yl)-2-((tetrahydro-2H-pyran-4-yl-2,2,6,6-d4)methyl-d2)octahydrocyclopenta[c]pyrrol-5-amine]
Human M4 Emin [1]: 2%

[2H]C([2H])([C@H]1CCOC(C)(C)C1)N1C[C@H]2C[C@H](Nc3ccc(-c4cccnc4C(F)(F)F)nn3)C[C@H]2C1 [Compound 61, (3aR,5s,6aS)-2-(((S)-2,2-dimethyltetrahydro-2H-pyran-4-yl)methyl-d2)-N-(6-(2-(trifluoromethyl)pyridin-3-yl)pyridazin-3-yl)octahydrocyclopenta[c]pyrrol-5-amine]
remaining activity at 30 µM ([1]; CHO-K1, read-out: Human M4 Emin): 8%
human mAChR M1 antagonist activity (comparison in words) [2]: less human mAChR M1 antagonist activity than compound 62

[2H]C([2H])([C@H]1CCCCO1)N1C[C@H]2C[C@H](Nc3ccc(-c4cccnc4C(F)(F)F)nn3)C[C@H]2C1 [Compound 49, (3aR,5s,6aS)-2-(((R)-tetrahydro-2H-pyran-2-yl)methyl-d2)-N-(6-(2-(trifluoromethyl)pyridin-3-yl)pyridazin-3-yl)octahydrocyclopenta[c]pyrrol-5-amine]
Human M4 Emin [1]: 2%

[2H]C([2H])(C1CCOC(C)(C)C1)N1C[C@H]2C[C@H](Nc3ccc(-c4cnccc4C(F)(F)F)nn3)C[C@H]2C1 (single isomer, unassigned) [Compound 58]
Human M4 Emin [1]: 3%

[2H]C1([2H])CC(C([2H])([2H])N2C[C@H]3C[C@H](Nc4nnc(-c5cnccc5C(F)(F)F)cc4C)C[C@H]3C2)CC([2H])([2H])O1 [Compound 18, (3aR,5s,6aS)-N-(4-methyl-6-(4-(trifluoromethyl)pyridin-3-yl)pyridazin-3-yl)-2-((tetrahydro-2H-pyran-4-yl-2,2,6,6-d4)methyl-d2)octahydrocyclopenta[c]pyrrol-5-amine]
Human M4 Emin [1]: 4%

[2H]C([2H])([C@@H]1CCCOC1)N1C[C@H]2C[C@H](Nc3ccc(-c4cccnc4C(F)(F)F)nn3)C[C@H]2C1 [Compound 47, (3aR,5s,6aS)-2-(((S)-tetrahydro-2H-pyran-3-yl)methyl-d2)-N-(6-(2-(trifluoromethyl)pyridin-3-yl)pyridazin-3-yl)octahydrocyclopenta[c]pyrrol-5-amine]
Human M4 Emin [1]: 2%

CN1[C@@H]2C[C@@H](OC(=O)[C@H](CO)c3ccccc3)C[C@H]1[C@@H]1O[C@@H]12 [scopolamine]
reduction of haloperidol-induced catalepsy ([3]; M4KO mice): ineffective in reducing catalepsy
reversal of haloperidol-induced catalepsy ([3]; WT mice): completely reversed
